# Patent US6552061B1, “Amino acid derivatives and anti-inflammatory agents” (Ajinomoto Co., Inc., priority 1998, dated 2003)
# Where two headings read alike, the source gives them in different places.
# Experiments:
# Assay type in all cases: cell-based
# [1] = tested on: IL-1α; experiment: Test for an Activity of Inhibiting IL-1α Expression (ELISA, UVB-irradiated human epidermal cells); conditions: light or radiation study, 24 h, read-out: inhibitory rate (%) of IL-1α expression; for inhibition at 10 µM: concentration 10 μM; for inhibition at 500 µM: concentration 0.5 mM; for inhibition at 1000 µM: concentration 1 mM; for inhibition at 10000 µM: concentration 10 mM; for inhibition at 50 µM: concentration 50 μM; for inhibition at 20 µM: concentration 20 μM
# Description: Test for an Activity of Inhibiting IL-1α Expression
# (§1) The test compound was added to human epidermal cells which had become confluent in a culture plate. Eighteen hours later, the culture solution was replaced with a phenol red-free medium. The cells were subjected to UV irradiation (UVB: 50 mJ/cm^2) using Dermaray M-DMR-80 (supplied by Toshiba Iryo Yohin KK). After 24 hours passed, the culture solution was recovered, and the IL-1α concentration in the culture solution was measured using IL-1α·ELISA System (supplied by Amersham Corp.). The rate of inhibition of IL-1α expression on the test compound was calculated using formula (V).
# Rate (%) of inhibition of IL-1α expression={1−(B1−B3)/(B2−B3)}×100 (V)
# B1: IL-1α concentration in the addition of the test compound
# B2: IL-1α concentration in the non-addition of the test compound
# B3: IL-1α concentration when the test compound was not added, nor was UV irradiation conducted
# [2] = tested on: NF-κB; experiment: Test for an Activity of Inhibiting NF-κB Activation (gel shift assay, UVB-irradiated human epidermal cells); conditions: light or radiation study, read-out: inhibitory rate (%) of NF-κB activation; for inhibition at 1000 µM: concentration 1 mM; for inhibition at 2000 µM: concentration 2 mM; for inhibition at 10 µM: concentration 10 μM; for inhibition at 50 µM: concentration 50 μM
# Description: Test for an Activity of Inhibiting NF-κB Activation
# (§2) Eighteen hours later, the culture solution was replaced with a phenol red-free medium. The cells were subjected to UV irradiation (UVB: 50 mJ/m^2)using Dermaray M-DMR-80 (supplied by Toshiba Iryo Yohin KK). After from 4 to 5 hours passed, the cells were recovered, and the nucleoproteins were extracted in a usual manner. With respect to the resulting nucleoproteins, NF-κB activated by gel shift assay was detected. The amount of NF-κB was determined by measuring a radioactivity of an NF-κB band using a bio-imaging analyzer BAS 2000 (supplied by Fuji Photo Film). The rate of inhibition of NF-κB activation on the test compound was calculated using formula (III).
# Rate (%) of inhibition of NF-κB activation={1−(A1−A3)/(A2−A3)}×100 (III)
# A1: radioactivity of an NF-κB band in the addition of the test compound
# A2: radioactivity of an NF-κB band in the non-addition of the test compound
# A3: radioactivity of an NF-κB band when the test compound was not added, nor was UV irradiation conducted
# [3] = tested on: collagenase; experiment: Test for an Activity of Inhibiting Collagenase Expression (MMP-1 ELISA, UVA-irradiated human dermal fibroblasts); conditions: Fibroblast, light or radiation study, 24 h, read-out: inhibitory rate (%) of collagenase expression; for inhibition at 10 µM: concentration 10 μM
# Description: Test for an Activity of Inhibiting Collagenase Expression
# as §1, with “dermal fibroblasts” for “epidermal cells”, “(UVA; 20 J/cm^2)” for “(UVB: 50 mJ/cm^2)”, “collagenase” for “IL-1α”, “MMP-1α·ELISA” for “IL-1α·ELISA”, “(VI).” for “(V).”
# Rate (%) of inhibition of collagenase expression={1−(B4−B6)/(B5−B6)}×100 (VI)
# B4: collagenase concentration in the addition of the test compound
# B5: collagenase concentration in the non-addition of the test compound
# B6: collagenase concentration when the test compound was not added, nor was UV irradiation conducted
# [4] = tested on: AP-1; experiment: Test for an Activity of Inhibiting AP-1 Activation (gel shift assay, UVA-irradiated human dermal fibroblasts); conditions: AP1, light or radiation study, read-out: inhibitory rate (%) of AP-1 activation; for inhibition at 500 µM: concentration 0.5 mM; for inhibition at 1 µM: concentration 1 μM
# Description: Test for an Activity of Inhibiting AP-1 Activation
# as §2, with “The test compound was added to human dermal fibroblasts which had become confluent in a culture plate. Eighteen” for “Eighteen”, “(UVA: 20 J/cm^2) using” for “(UVB: 50 mJ/m^2)using”, “AP-1” for “NF-κB”, “(IV).” for “(III).”
# Rate (%) of inhibition of AP-1 activation={1−(A4−A6)/(A5−A6)}×100 (IV)
# A4: radioactivity of an AP-1 band in the addition of the test compound
# A5: radioactivity of an AP-1 band in the non-addition of the test compound
# A6: radioactivity of an AP-1 band when the test compound was not added, nor was UV irradiation conducted
smiles,measurement,setting,value
C[C@H](NCc1ccccc1O)C(=O)O [N-(2-hydroxybenzyl)-L-alanine],inhibition at 1 µM,[1]; concentration 1 μM,14%
same,inhibition at 10 µM,[1],100%
same,inhibition at 1000 µM,[2],20%
CCOC(=O)[C@H](Cc1ccc(O)cc1)NCc1ccccc1O [N-(2-hydroxybenzyl)-L-tyrosine ethyl ester],inhibition at 100 µM,[2]; concentration 0.1 mM,64%
same,inhibition at 500 µM,[2]; concentration 0.5 mM,81%
CCOC(=O)[C@@H](C)NCc1ccccc1O [N-(2-hydroxybenzyl)-D-alanine ethyl ester],inhibition at 500 µM,[3]; concentration 0.5 mM,108%
same,inhibition at 1000 µM,[2],90%
same,inhibition at 2000 µM,[2],87%
CCCCCCCCCCCCNC(=O)[C@H](CCCNC(=N)N)NCc1ccccc1O [N-(2-hydroxybenzyl)-L-arginine lauryl amide],inhibition at 10 µM,[2],16%
same,inhibition at 50 µM,[2],28%
CCNC(=O)[C@H](C)NCc1ccccc1O [N-(2-hydroxybenzyl)-L-alanine ethyl amide],inhibition at 500 µM,[1],81%
same,inhibition at 1000 µM,[1],99%
same,inhibition at 1000 µM,[4]; concentration 1 mM,52%
same,inhibition at 2000 µM,[4]; concentration 2 mM,131%
same,inhibition at 1000 µM,[2],43%
same,inhibition at 2000 µM,[2],26%
CCOC(=O)[C@H](C)NCc1ccccc1O [N-(2-hydroxybenzyl)-L-alanine ethyl ester],inhibition at 200 µM,[1]; concentration 0.2 mM,61%
same,inhibition at 2000 µM,[1]; concentration 2 mM,100%
same,inhibition at 500 µM,[4],26%
same,inhibition at 200 µM,[2]; concentration 0.2 mM,68%
same,inhibition at 2000 µM,[2],77%
O=C(O)[C@H](CO)NCc1ccccc1O [N-(2-hydroxybenzyl)-L-serine],inhibition at 10000 µM,[1],62%
same,inhibition at 30000 µM,[1]; concentration 30 mM,70%
same,inhibition at 10000 µM,[2]; concentration 10 mM,17%
same,inhibition at 30000 µM,[2]; concentration 30 mM,34%
CCCCCCCCCCCCOC(=O)[C@H](CO)NCc1ccccc1O [N-(2-hydroxybenzyl)-L-serine lauryl ester],inhibition at 10 µM,[1],12%
same,inhibition at 100 µM,[1]; concentration 100 μM,31%
same,inhibition at 1 µM,[4],43%
same,inhibition at 10 µM,[4]; concentration 10 μM,49%
same,inhibition at 50 µM,[2],79%
CCOC(=O)[C@H](CCCNC(=N)N)NCc1ccccc1O [N-(2-hydroxybenzyl)-L-arginine ethyl ester],inhibition at 500 µM,[1],65%
CCOC(=O)CNCc1ccccc1O [N-(2-hydroxybenzyl)glycine ethyl ester],inhibition at 10 µM,[3],39%
same,inhibition at 100 µM,[3]; concentration 100 μM,46%
"S=C(S)N1CCCC1 [pyrrolidinedithiocarbamate, reference compound]",inhibition at 5 µM,[1]; concentration 5 μM,-45%
same,inhibition at 5 µM,[2]; concentration 5 μM,-9%
same,inhibition at 10 µM,[2],9%
CCOC(=O)[C@@H]1CCC(=O)N1Cc1ccccc1O [N-(2-hydroxybenzyl)-L-pyroglutamic acid ethyl ester],inhibition at 500 µM,[1],84%
same,inhibition at 1000 µM,[1],55%
same,inhibition at 1000 µM,[2],53%
same,inhibition at 2000 µM,[2],85%
CCCCCCCCCCCCOC(=O)[C@H](CC(C)C)NCc1ccccc1O [N-(2-hydroxybenzyl)-L-leucine lauryl ester],inhibition at 10 µM,[3],21%
same,inhibition at 10 µM,[2],21%
same,inhibition at 20 µM,[2]; concentration 20 μM,23%
CCOC(=O)[C@H](Cc1ccccc1)NCc1ccccc1O [N-(2-hydroxybenzyl)-L-phenylalanine ethyl ester],inhibition at 100 µM,[1]; concentration 0.1 mM,25%
CCCCCCCCCCCCOC(=O)[C@@H](C)NCc1ccccc1O [N-(2-hydroxybenzyl)-D-alanine lauryl ester],inhibition at 10 µM,[1],35%
same,inhibition at 50 µM,[1],31%
same,inhibition at 50 µM,[2],60%
same,inhibition at 100 µM,[2]; concentration 100 μM,59%
CCNC(=O)[C@H](Cc1ccc(O)cc1)NCc1ccccc1O [N-(2-hydroxybenzyl)-L-tyrosine ethyl amide],inhibition at 1000 µM,[2],72%
same,inhibition at 2000 µM,[2],28%
CCCCCCCCCCCCOC(=O)[C@H](CCCNC(=N)N)NCc1ccccc1O [N-(2-hydroxybenzyl)-L-arginine lauryl ester],inhibition at 10 µM,[3],52%
CCOC(=O)[C@H](CC(C)C)NCc1ccccc1O [N-(2-hydroxybenzyl)-L-leucine ethyl ester],inhibition at 1000 µM,[2],84%
same,inhibition at 2000 µM,[2],57%
CCCCCCCCCCCCNC(=O)CNCc1ccccc1O [N-(2-hydroxybenzyl)glycine lauryl amide],inhibition at 20 µM,[1],13%
same,inhibition at 50 µM,[1],45%
O=C(O)CNCc1ccccc1O [N-(2-hydroxybenzyl)glycine],inhibition at 5000 µM,[1]; concentration 5 mM,26%
same,inhibition at 10000 µM,[1],88%
same,inhibition at 5000 µM,[2]; concentration 5 mM,36%
CCCCCCCCCCCCNC(=O)[C@@H](C)NCc1ccccc1O [N-(2-hydroxybenzyl)-D-alanine lauryl amide],inhibition at 20 µM,[1],25%
same,inhibition at 50 µM,[1],79%
same,inhibition at 1 µM,[4],14%
same,inhibition at 20 µM,[4]; concentration 20 μM,31%
same,inhibition at 10 µM,[2],29%
same,inhibition at 50 µM,[2],97%
CC(C)OC(=O)[C@H](C)NCc1ccccc1O [N-(2-hydroxybenzyl)-L-alanine isopropyl ester],inhibition at 100 µM,[1]; concentration 0.1 mM,36%
same,inhibition at 1000 µM,[1],53%
same,inhibition at 100 µM,[4]; concentration 0.1 mM,20%
same,inhibition at 500 µM,[4],35%
